“And” between values parts separate entries of the source, which are not always exact repeats. Equal entries are not always repeated.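 Compound exposure: 48 hours, 5 concentrations, 96-well plates. At the GI50, growth is halved. TGI: total growth inhibition.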

Among the data in PubChem BioAssay (NCI) are GI50 and TGI values, retold here.

Test systems include A549 NSCLC; HCT-116 colon; HT29 colon; LOX IMVI melanoma; MDA-MB-435; NCI-H23 lung; RXF 393 renal; SK-MEL-28 melanoma; SW-620 colon; UO-31 renal.
Common to all, as to experiment: NCI anticancer screen, dose series, 48 h

On to `NC(C/[N+]([O-])=N/O)C(=O)O` (configuration not stated), for which the GI50 was 0.24 µM in the assay on A549 NSCLC; 1.01 µM and 2.07 µM and 0.954 µM in the assay on HCT-116 colon; 11.7 µM and 17.9 µM and 10.6 µM in the assay on MDA-MB-435; 3.85 µM and 12.6 µM and 1.61 µM in the assay on NCI-H23 lung; 93.2 µM and > 100 µM and 29 µM with RXF 393 renal; > 47.8 µM and > 100 µM and 24.5 µM with SK-MEL-28 melanoma. For the same molecule, the GI50 in the assay with SW-620 colon was 9.22 µM and 19.7 µM and 15.1 µM; in the assay on UO-31 renal, 5.55 µM and 2.44 µM and 2.13 µM. Moreover, the TGI with A549 NSCLC is > 100 µM and 67.9 µM; with HT29 colon, more than 395 µM; with LOX IMVI melanoma, > 100 µM and 153 µM; in the assay with MDA-MB-435, more than 500 µM; with NCI-H23 lung, > 100 µM and 154 µM; in the assay on RXF 393 renal it was > 100 µM and 381 µM. Moreover, the TGI with SK-MEL-28 melanoma was more than 500 µM; in the assay on SW-620 colon it was > 100 µM and 417 µM; with UO-31 renal it was > 100 µM and 235 µM.
